From patent US20240400647A1, “Biologically Active Collagen Hybridizing Peptides” (3HELIX, INC., priority 2021, published 2024)

System: IMR-90 human lung fibroblasts
Experiment: IMR-90 fibroblast culture with peptides, gelatin or collagen added to media
Assay type: cell-based
Conditions: 30 μg/mL added to media, imaged after three days at 37° C.
Experimental: IMR-90 human lung fibroblasts were purchased from ITCC. Cells were thawed and cultured in EMEM supplemented with 10% FBS and 1% Pen-Strep. Cells were cultured to 80-95% confluency then sub-cultured for three passages prior to utilization in experiments.
Experimental wells were prepared by adding 100 μL cell media to wells of a 96-well gelatin coated plate (corning) or 300 μL media to the wells of a 48-well uncoated cell culture plate. Peptides, as listed below, were added to each well (5 μL to 96 well plates, 10 μL to 48 well plates).
During passaging, cells were quantified, and 2100 IMR-90 cells were added to each well of the 96 well gelatin-coated plate. For the uncoated plate IMR-90 cells were added to each well. Additional media was added to bring the volume to 200 μL (96 well) or 500 μL (48 well). Cells were cultured at 37° C., 5% CO2 for three days then imaged. […] Media was added one day later (day 4) then allowed to culture an additional 2 days before imaging and lysing cells. qPCR was performed on cell lysate following cDNA synthesis (cell-to-CT kit, Thermo Fisher scientific).

collagen
confluence and directionality of cell growth: higher confluence and more directionality in cell growth

gelatin
confluence and directionality of cell growth: higher confluence and more directionality in cell growth
